22 compounds from patent US20200404919A1, “USE OF HETEROARYL-TRIAZOLE AND HETEROARYL-TETRAZOLE COMPOUNDS AS PESTICIDES IN PLANT PROTECTION” (Bayer Aktiengesellschaft, priority 2018, published 2020) can be followed below.

Common to all, as to format: in vivo
One assay relates to Aphis gossypii. Description: Aphis gossypii - oral test. To be noted: 120 h, read-out: mortality in %. The method, then: Solvent: 100 parts by weight acetone
To produce a suitable preparation of active compound, 1 part by weight of active compound is mixed with the stated amount of solvent, and the concentrate is diluted with water to the desired concentration.
50 μl compound solution is filled in microtiter plates and 150 μl IPL41 insect medium (33%+15% sugar) is added to obtain a total volume of 200 μl per well. Afterwards the plates are sealed with parafilm through which a mixed population of the cotton aphid (Aphis gossypii) can suck on the compound preparation.
(§1) After 5 days mortality in % is determined. 100% means all aphids have been killed and 0% means none of the aphids have been killed.

The next assay has as its system Myzus persicae. Description: Myzus persicae - oral test. The following applies: 120 h, read-out: mortality in %. The method, then:
To produce a suitable preparation of active compound, 1 part by weight of active compound is mixed with the stated amount of solvent, and the concentrate is diluted with water to the desired concentration. 50 μl compound solution is filled in microtiter plates and 150 μl IPL41 insect medium (33%+15% sugar) is added to obtain a total volume of 200 μl per well. Afterwards the plates are sealed with parafilm through which a mixed population of the green peach aphid (Myzus persicae) can suck on the compound preparation.
as §1

The test system of a further assay is Diabrotica balteata. Briefly: Diabrotica balteata - spray test. To be noted: 168 h, 160 μg/well, germinated wheat seeds, larvae, after 7 days, read-out: efficacy in %. As to the method: Diabrotica balteata—Spray Test
(§2) To produce a suitable preparation of active compound, 1 part by weight of active compound is mixed with the stated amount of solvent, and the concentrate is diluted with water, containing an emulsifier concentration of 1000 ppm, to the desired concentration. Further test concentrations are prepared by dilution with emulsifier containing water.
Soaked wheat seeds (Triticum aestivum) are placed in a multiple well plate filled with agar and some water and are incubated for 1 day to germinate (5 seeds per well). The germinated wheat seeds are sprayed with a test solution containing the desired concentration of the active ingredient. Afterwards each unit is infected with 10-20 larvae of the banded cucumber beetle (Diabrotica balteata).
After 7 days efficacy in % is determined. 100% means all the seedlings have grown up like in the untreated, uninfected control; 0% means none of the seedlings have grown.

Another assay has as its system Spodoptera frugiperda. Description: Spodoptera frugiperda - spray test. To be noted: in Zea mays, 168 h, read-out: mortality in %. The method, then:
Spodoptera frugiperda—Spray Test
(§3) To produce a suitable preparation of active compound, 1 part by weight of active compound is mixed with the stated amount of solvents and is diluted with water, containing an emulsifier concentration of 1000 ppm, to the desired concentration. Further test concentrations are prepared by dilution with emulsifier containing water.
Maize (Zea mays) leaf sections are sprayed with a preparation of the active ingredient of the desired concentration. Once dry, the leaf sections are infested with fall armyworm larvae (Spodoptera frugiperda).
After 7 days mortality in % is determined. 100% means all caterpillars have been killed and 0% means none of the caterpillars have been killed.

The test system of the next assay is Phaedon cochleariae. Description: Phaedon cochleariae - spray test. To be noted: in Brassica rapa, foliar, 168 h, read-out: mortality in %. As to the method:
Phaedon cochleariae—Spray Test
as §3
Chinese cabbage (Brassica pekinensis) leaf disks are sprayed with a preparation of the active ingredient of the desired concentration. Once dry, the leaf disks are infested with mustard beetle larvae (Phaedon cochleariae).
After 7 days mortality in % is determined. 100% means all beetle larvae have been killed and 0% means none of the beetle larvae have been killed.

For the next assay, the system named is Nezara viridula. Briefly: Nezara viridula - spray test 1. The following applies: in Hordeum vulgare, 96 h, read-out: mortality in %. As to the method:
Nezara viridula—Spray Test 1
as §2
Barley plants (Hordeum vulgare) infested with larvae of the southern green stink bug (Nezara viridula) are sprayed with a test solution containing the desired concentration of the active ingredient.
After 4 days mortality in % is determined. 100% means all the stink bugs have been killed; 0% means none of the stink bugs have been killed.

The test system of a further assay is Nilaparvata lugens. Briefly: Nilaparvata lugens - spray test 1. The following applies: in Oryza sativa, 96 h, read-out: mortality in %, 500 g/ha, rice plants, after 4 days. The method, then: Nilaparvata lugens—Spray Test 1
as §3
Rice plants (Oryza sativa) are sprayed with a preparation of the active ingredient of the desired concentration and the plants are infested with the brown planthopper (Nilaparvata lugens).
After 4 days mortality in % is determined. 100% means all planthoppers have been killed and 0% means none of the planthoppers have been killed.

Consider `CC(c1ncnn1-c1ccncc1)N(CC1CC1)C(=O)c1cc(Cl)cc(C(F)(F)F)c1` (centres unmarked) [Compound I-94], for which the mortality at 100 ppm with Aphis gossypii is 100%. Besides, in the assay with Myzus persicae, the mortality at 20 ppm worked out at 100%. The pest or weed control at 160 µg/disc, 160 µg/well in the assay on Diabrotica balteata was found to be 100%.
Regarding `CC(c1ncnn1-c1cccc(Cl)n1)N(CC1CC1)C(=O)c1cc(Cl)cc(C(F)(F)F)c1` (centres unmarked) [Compound I-87], in the assay with Diabrotica balteata, the pest or weed control at 160 µg/disc, 160 µg/well amounted to 100%.
On to `C[C@H](NC(=O)c1cc(F)c(Cl)c(F)c1)c1ncnn1-c1ncccn1` [Compound I-133], for which the pest or weed control at 160 µg/disc, 160 µg/well with Diabrotica balteata came to 100%.
On to `CC(c1ncnn1-c1ncc(Br)cn1)N(CC1CC1)C(=O)c1cc(Cl)cc(C(F)(F)F)c1` (centres unmarked) [Compound I-92, N-[1-[2-(5-bromopyrimidin-2-yl)-1,2,4-triazol-3-yl]ethyl]-3-chloro-N-(cyclopropylmethyl)-5-(trifluoromethyl)benzamide], for which the mortality at 100 ppm in the assay with Aphis gossypii is 100%. Also, the mortality at 500 g/ha in the assay on Spodoptera frugiperda and with Phaedon cochleariae was 100% in each case. Moreover, in the assay on Myzus persicae, the mortality at 20 ppm amounted to 100%. The pest or weed control at 160 µg/disc, 160 µg/well with Diabrotica balteata came out at 100%.
On to `CC(c1ncnn1-c1ccc(Cl)nc1)N(CC1CC1)C(=O)c1cc(Cl)cc(C(F)(F)F)c1` (centres unmarked) [Compound I-105], for which the pest or weed control at 160 µg/disc, 160 µg/well in the assay on Diabrotica balteata was 100%. Besides, the mortality at 500 g/ha in the assay on Phaedon cochleariae stood at 100%.
For the compound `CC(c1ncnn1-c1ccnc(Cl)c1)N(CC1CC1)C(=O)c1cc(Cl)cc(C(F)(F)F)c1` (centres unmarked) [Compound I-102], in the assay with Diabrotica balteata, the pest or weed control at 160 µg/disc, 160 µg/well came to 100%.
For the compound `C[C@H](NC(=O)c1cc(Cl)cc(C(F)(F)F)c1)c1ncnn1-c1ccc(I)cn1` [Compound I-132, 3-chloro-N-[(1S)-1-[2-(5-iodo-2-pyridyl)-1,2,4-triazol-3-yl]ethyl]-5-(trifluoromethyl)benzamide], the mortality at 500 g/ha with Spodoptera frugiperda and in the assay on Nezara viridula was 100% throughout. For the same compound, in the assay with Diabrotica balteata, the pest or weed control at 160 µg/disc, 160 µg/well amounted to 100%.
For the compound `C[C@H](NC(=O)c1cc(Cl)cc(Br)c1)c1ncnn1-c1ccc(Cl)cn1` [Compound I-137, 3-bromo-5-chloro-N-[(1S)-1-[2-(5-chloro-2-pyridyl)-1,2,4-triazol-3-yl]ethyl]benzamide], the mortality at 500 g/ha in the assay with Spodoptera frugiperda and in the assay on Nezara viridula was 100% in each case. Moreover, the pest or weed control at 160 µg/disc, 160 µg/well with Diabrotica balteata was found to be 100%.
Regarding `C[C@H](NC(=O)c1cncc(C(F)(F)F)c1)c1nc(C(F)(F)F)nn1-c1ccc(Cl)cn1` [Compound I-135], the mortality at 500 g/ha in the assay on Spodoptera frugiperda was 100%. For the same compound, in the assay with Diabrotica balteata, the pest or weed control at 160 µg/disc, 160 µg/well amounted to 100%.
Turning to `CC(c1ncnn1-c1ncccn1)N(CC1COC1)C(=O)c1cc(Cl)cc(C(F)(F)F)c1` (centres unmarked) [Compound I-118], the mortality at 500 g/ha with Spodoptera frugiperda was 100%; with Phaedon cochleariae it was 83%. Moreover, the mortality at 20 ppm in the assay with Myzus persicae is 100%. Moreover, the pest or weed control at 160 µg/disc, 160 µg/well in the assay with Diabrotica balteata was found to be 100%.
Take `C[C@H](NC(=O)c1cc(F)cc(C#N)c1)c1ncnn1-c1ncccn1` [Compound I-128]: the mortality at 500 g/ha in the assay on Nezara viridula turned out to be 100%. Besides, the pest or weed control at 160 µg/disc, 160 µg/well in the assay on Diabrotica balteata was found to be 100%.
As for `CC(NC(=O)c1cc(Cl)cc(Cl)c1)c1ncnn1-c1ncc(Br)cn1` (centres unmarked) [Compound I-130], the mortality at 500 g/ha with Spodoptera frugiperda was 100%. In addition, the pest or weed control at 160 µg/disc, 160 µg/well in the assay on Diabrotica balteata worked out at 100%.
For `C[C@H](NC(=O)c1cc(Cl)cc(C(F)(F)F)c1)c1ncnn1-c1ccc(Br)cn1` [Compound I-129, N-[(1S)-1-[2-(5-bromo-2-pyridyl)-1,2,4-triazol-3-yl]ethyl]-3-chloro-5-(trifluoromethyl)benzamide], the mortality at 500 g/ha with Spodoptera frugiperda and with Nezara viridula was 100% in each case. Also, the pest or weed control at 160 µg/disc, 160 µg/well in the assay on Diabrotica balteata was 100%.
With `C[C@H](NC(=O)c1cc(C(F)(F)F)cc(C(F)(F)F)c1)c1nc(C(F)(F)F)nn1-c1ccc(Cl)cn1` [Compound I-136, N-[(1S)-1-[2-(5-chloro-2-pyridyl)-5-(trifluoromethyl)-1,2,4-triazol-3-yl]ethyl]-3,5-bis(trifluoromethyl)benzamide], the mortality at 500 g/ha with Spodoptera frugiperda came out at 100%. Also, in the assay on Diabrotica balteata, the pest or weed control at 160 µg/disc, 160 µg/well is 100%.
As to `CC(c1ncnn1-c1cccnn1)N(CC1CC1)C(=O)c1cc(Cl)cc(C(F)(F)F)c1` (centres unmarked) [Compound I-103], the mortality at 100 ppm with Aphis gossypii turned out to be 100%. The mortality at 20 ppm in the assay on Myzus persicae is 90%. In addition, the pest or weed control at 160 µg/disc, 160 µg/well in the assay with Diabrotica balteata was 100%. For the same compound, the mortality at 500 g/ha in the assay on Phaedon cochleariae was 100%.
In the case of `CC(c1ncnn1-c1cccnc1)N(CC1CC1)C(=O)c1cc(Cl)cc(C(F)(F)F)c1` (centres unmarked) [Compound I-85], the mortality at 100 ppm with Aphis gossypii was 100%. The mortality at 20 ppm in the assay with Myzus persicae stood at 100%. Further, the pest or weed control at 160 µg/disc, 160 µg/well in the assay with Diabrotica balteata worked out at 100%.
Consider `CC(c1ncnn1-c1ccc(Cl)cn1)N(CC1CC1)C(=O)c1cc(Cl)cc(C(F)(F)F)c1` (centres unmarked) [Compound I-84, 3-chloro-N-[1-[2-(5-chloro-2-pyridyl)-1,2,4-triazol-3-yl]ethyl]-N-(cyclopropylmethyl)-5-(trifluoromethyl)benzamide], for which the mortality at 500 g/ha with Spodoptera frugiperda, with Nezara viridula and with Phaedon cochleariae was 100% throughout. In addition, in the assay on Myzus persicae, the mortality at 20 ppm turned out to be 100%. Moreover, the pest or weed control at 160 µg/disc, 160 µg/well in the assay on Diabrotica balteata came to 100%.
As for `CC(c1ncnn1-c1ncccn1)N(CC1CC1)C(=O)c1cc(C#N)cc(C(F)(F)F)c1` (centres unmarked) [Compound I-50, 3-cyano-N-(cyclopropylmethyl)-N-[1-(2-pyrimidin-2-yl-1,2,4-triazol-3-yl)ethyl]-5-(trifluoromethyl)benzamide], the mortality at 100 ppm in the assay with Aphis gossypii worked out at 100%. For the same compound, the mortality at 500 g/ha in the assay on Spodoptera frugiperda, with Nezara viridula and in the assay on Phaedon cochleariae was 100% in each case. Further, the mortality at 20 ppm with Myzus persicae stood at 100%. In addition, the pest or weed control at 160 µg/disc, 160 µg/well in the assay with Diabrotica balteata was found to be 100%.
With `CC(c1ncnn1-c1ncccn1)N(CC1CCC1)C(=O)c1cc(Cl)cc(C(F)(F)F)c1` (centres unmarked) [Compound I-101], the mortality at 100 ppm in the assay with Aphis gossypii was found to be 100%. The mortality at 500 g/ha with Spodoptera frugiperda stood at 100%. Further, the mortality at 20 ppm in the assay with Myzus persicae came out at 100%. Besides, the pest or weed control at 160 µg/disc, 160 µg/well in the assay on Diabrotica balteata came to 100%.
As to `CC(c1ncnn1-c1ncccn1)N(CC1CC1)C(=O)c1ccc(Cl)c(Cl)c1` (centres unmarked) [Compound I-104], the mortality at 100 ppm with Aphis gossypii came to 90%. The mortality at 500 g/ha in the assay on Nezara viridula and in the assay with Phaedon cochleariae was 100% each time. The mortality at 20 ppm in the assay with Myzus persicae is 100%. Further, in the assay with Diabrotica balteata, the pest or weed control at 160 µg/disc, 160 µg/well was 100%.
For `C[C@H](NC(=O)c1cc(Cl)cc(C(F)(F)F)c1)c1nc(C(F)(F)F)nn1-c1ccc(Cl)cn1` [Compound I-131, 3-chloro-N-{(1S)-1-[1-(5-chloropyridin-2-yl)-3-(trifluoromethyl)-1H-1,2,4-triazol-5-yl]ethyl}-5-(trifluoromethyl)benzamide], the mortality at 500 g/ha with Spodoptera frugiperda, in the assay with Nezara viridula and with Nilaparvata lugens was 100% each time. Further, the pest or weed control at 160 µg/disc, 160 µg/well in the assay with Diabrotica balteata stood at 80%.
In the case of `CC(c1ncnn1-c1ncccn1)N(CC1CC1)C(=O)c1cncc(SC(F)(F)F)c1` (centres unmarked) [Compound I-90], the mortality at 100 ppm in the assay on Aphis gossypii turned out to be 100%. In the assay with Myzus persicae, the mortality at 20 ppm is 100%. In addition, the mortality at 500 g/ha in the assay with Phaedon cochleariae was determined as 100%.
